Values joined by “and” are separate entries in the source; they are usually repeats but may differ in a detail not shown here. Identical values can stand only once. Like-named read-outs stand apart in the source and are kept apart here.
Legend:
[1] = Brain penetration: plasma and brain levels by LC/MS/MS after oral administration; format: in vivo, rat; details: 30 mg/kg PO, fasted; for concentration at 1 h / Kp at 1 h: male, Sprague Dawley, rat, po, 30 mg/kg; for Kp at 1 h: brain/plasma
Experimental: CR 4056 was determined in rat plasma and in rat brain and plasma using a LC/MS/MS method. Male Sprague Dawley rats, Harlan, were treated orally with a CR 4056 suspension (Methocel 0.5%) at the dose of 30 mg/kg. Oral administration was performed by gastric gavage to 3 animals per group (5 ml/kg). The compound was detected in plasma and in brain 1 hour after the treatment.
Each rat brain was weighted and cut in half. Each cerebral hemisphere was weighted and homogenized with two different methodologies. One was liquidization by Ultra turrax tube drive (IKA), adding an aliquot of buffer solution (10 mM ammonium formate pH 3.5) three times the weight of the hemisphere. Then 30 μl of the extract solution were added to 0.25 ml of methanol in a 1.5 ml eppendorf tube, vortex-mixed and centrifugated for 5 min at 13500 rpm at 4° C. the supernatant was transferred to a 96-deep well plates 2 mL round (Axygen) and injected into the LC/MS/MS system. The second one was cryogenic grinding with Mikro Dismembrator (Sartorius). Each cerebral hemisphere was weighted, put in a 20 mL teflon vessel with a steel sphere (7.85 g/ml dia 10 mm) and frozen by immersion in liquid nitrogen for 5 minutes. The deep frozen brain was ground with Mikro Dismembrator at 2500 rpm for 30 sec, the freezing/grinding cycle was repeated twice. A portion of powder was accurately weighted (ca. 10 mg) in a 1.5 ml eppendorf tube, 0.25 ml of methanol were then added. After vortex-mixing and centrifugation for 5 min at 13500 rpm at 4° C., the supernatant was placed in a 96-deep well plates 2 mL round (Axygen) and injected into the LC/MS/MS system. Both methods used for homogenization gave similar results showing that the extraction efficiency was similar for both methods.
Individual plasma and brain levels and brain plasma ratio after oral administration (30 mg/kg) of CR 4056 suspension to male Sprague Dawley rats in fasted conditions (rats were scarified 60 minutes after the PO administration) are shown in the following table.

TNFα = TNFα gene expression in IL-1β-stimulated U373 MG astrocytoma cells (RT-PCR); format: cell-based, human; details: IL-1β 2 ng/ml
Experimental: A model of astrocytes, the human glioblastoma astrocytoma cell line U373 MG (Uppsala), was used for these experiments. Adherent cells were grown in DMEM medium supplemented with 10% FBS at 37° C. with CO2. 72 hours after plating, cells were treated for 1 h with 2-phenyl-6-(1H-imidazol-1-yl)quinazoline (CR4056) (10 μM) prepared according to EP2066653 and then stimulated with the pro-inflammatory cytokine IL-1β (2 ng/mL) for further 6 and 24 h.
At the end of incubation period, total RNA was obtained and retro-transcribed using the High-Capacity cDNA Reverse Transcription Kit (Thermo Fisher Scientific). The levels of expression of COX-2, IL-1β, IL-6 and TNFα were evaluated by RT-PCR analysis, performed using the Applied Biosystems 7500 Fast Real-Time PCR System using specific TaqMan assays and, as an endogenous control, the 18S Pre-Developed TaqMan® Assay (Thermo Fisher Scientific). The data analysis, with normalisation on 18S amplified values, was according to Thermo Fisher Scientific specific instructions for gene expression relative quantification. All individual data were the result of at least three different measurements for each sample.
Percentage of gene expression inhibition observed in U373 cells stimulated with IL-1β 2 ng/ml and exposed to 10 μM CR4056 for the indicated time.

rats = experiment: Irwin test (neurobehavioral changes); format: in vivo, rat; details: suprapharmacological concentrations
From the text: These findings indicate that CR4056 could be a safe drug for treating neurodegenerative diseases, and, in particular, Alzheimer disease.

Transgenic 5XFAD mice = experiment: Novel object recognition in transgenic 5XFAD mice model of Alzheimer's disease; format: in vivo, mouse; details: 30 mg/kg orally once a day for 10 days
From the text: FIG. 6 reports the results of Novel Object Recognition test in transgenic 5XFAD mice model of Alzheimer disease. (Obj C=new object) *p<0.0001, unpaired t Student test.
Transgenic 5XFAD mice, overexpressing the human amyloid precursor protein (APP695) with Swedish (K670N/M671L), Florida (I716V) and London (V717I) familial Alzheimer's disease (FAD) mutations, as well as human Presenilin1 (PS1) with M146L and L286V FAD mutations were used as Alzheimer's disease model. 6 months old female transgenic 5XFAD mice and wild-type controls (WT) were treated orally (gavage) with 30 mg/kg of CR4056 or vehicle once a day for a period of 10 days (n=4 WT/Vehicle, 8 WT/CR4056, 2 5XFAD/Vehicle, and 3 5XFAD/CR4056). Following repeated treatments, hippocampal-dependent memory was tested using the novel object recognition task. The object recognition test measures working and spatial memory. In the training phase, animals were placed in the arena with objects constructed from large plastic bricks. In the testing phase, one object was replaced by a novel object. Animals were returned in the arena and allowed to explore. Exploration of objects was observed and recorded. Mice should recognize that a new object has been placed and therefore explore this object for longer time.

[2] = individual male Sprague Dawley rats, 1 h

Brain/plasma ratio [1, 2]: 12.4 and 11.4
Mean Brain Concentration [1, 2]: 35492 ng/g and 27745 ng/g
Plasmatic Concentration [1, 2]: 2860 ng/mL and 2430 ng/mL
concentration at 1 h ([1]; brain, individual male Sprague Dawley rats, read-out: Mean Brain Concentration): 33600 ng/g
concentration at 1 h ([1]; brain, male Sprague Dawley rats, read-out: Mean Brain Concentration, mean of 3 rats): 32300 ng/g
Kp at 1 h ([1]; individual male Sprague Dawley rats, read-out: Brain/plasma ratio): 11.7
Kp at 1 h ([1]; male Sprague Dawley rats, read-out: Brain/plasma ratio, mean of 3 rats): 11.8
concentration at 1 h ([1]; plasma, individual male Sprague Dawley rats, read-out: Plasmatic Concentration): 2860 ng/mL
concentration at 1 h ([1]; plasma, male Sprague Dawley rats, read-out: Plasmatic Concentration, mean of 3 rats): 2720 ng/mL
Neurobehavioral changes (Irwin test) (rats): neither neurobehavioral changes
Structure (SMILES): c1ccc(-c2ncc3cc(-n4ccnc4)ccc3n2)cc1 [CR4056, 2-phenyl-6-(1H-imidazol-1-yl)quinazoline]
Percentage of gene expression inhibition, TNF-α (TNFα; 10 μM CR4056, 6 h): not yet modulated
Percentage of gene expression inhibition, TNF-α (TNFα; 10 μM CR4056, 24 h): 52%
Working and spatial memory, novel object recognition (Transgenic 5XFAD mice): significant improvement in the working and spatial memory
